Source: PubChem BioAssay (NCI)
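The compound was tested at five concentrations on cells cultured in 96-well plates, with a 48-hour exposure period. Abbreviation: GI50, concentration required for 50% inhibition of growth. TGI is the concentration that stops growth completely.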

How the values were obtained:
Assay in all cases: NCI tumour cell line growth inhibition, 48 h
K-562 leukemia = tested on: K-562 leukemia
IGROV1 ovarian = tested on: IGROV1 ovarian
COLO 205 colon = tested on: COLO 205 colon
SF-539 CNS = tested on: SF-539 CNS
ACHN renal = tested on: ACHN renal
SNB-19 CNS = tested on: SNB-19 CNS
RPMI-8226 leukemia = tested on: RPMI-8226 leukemia
SF-268 CNS = tested on: SF-268 CNS
SK-MEL-5 melanoma = tested on: SK-MEL-5 melanoma

SMILES	TGI (K-562 leukemia) [µM]	TGI (IGROV1 ovarian) [µM]	TGI (COLO 205 colon) [µM]	TGI (SF-539 CNS) [µM]	TGI (ACHN renal) [µM]	TGI (SNB-19 CNS) [µM]	TGI (RPMI-8226 leukemia) [µM]	TGI (SF-268 CNS) [µM]	TGI (SK-MEL-5 melanoma) [µM]	GI50 (K-562 leukemia) [µM]	GI50 (SF-268 CNS) [µM]	GI50 (IGROV1 ovarian) [µM]	GI50 (COLO 205 colon) [µM]	GI50 (SF-539 CNS) [µM]	GI50 (SK-MEL-5 melanoma) [µM]	GI50 (ACHN renal) [µM]	GI50 (RPMI-8226 leukemia) [µM]
O=C1c2ccccc2NC1(c1ccccc1)c1c(-c2ccccc2)[nH]c2ccccc12 (stereo not given)	> 100	> 100	35.3	> 100	> 100	> 100	> 100	–	–	–	–	–	–	–	–	–	–
CC1=C(C(=O)Nc2cc(=O)n(C)c(=O)n2C)C(c2ccc([N+](=O)[O-])cc2)C(C(=O)Nc2cc(=O)n(C)c(=O)n2C)=C(C)N1	> 100	> 100	> 100	> 100	> 100	> 100	> 100	> 100	–	–	–	–	–	–	–	–	–
CC1(C)OB(O)OC1(C)C	> 100	> 100	> 100	> 100	> 100	> 100	> 100	> 100	> 100	–	–	–	–	–	–	–	–
O=S(=O)(N/N=C/c1cccc(Cl)c1Cl)c1ccccc1	> 100	> 100	> 100	> 100	> 100	–	> 100	> 100	> 100	–	–	–	–	–	–	–	–
CN1C(c2ccccc2)CS(=O)(=O)CS1(=O)=O (stereo not given)	–	> 100	> 100	> 100	> 100	> 100	–	> 100	> 100	–	–	–	–	–	–	–	–
CN(C)CCNC(=O)c1cccc2c(Nc3ccc(S(N)(=O)=O)cc3)c3ccccc3nc12	9.61	16	1.75	3.23	5.2	10.7	77.2	7.49	10.3	–	–	–	–	–	–	–	–
COc1ccc(Cc2cc3c(cc2OCC(=O)O)OCO3)cc1	> 100	> 100	> 100	> 100	> 100	> 100	> 100	> 100	> 100	–	–	–	–	–	–	–	–
Cc1ccc(NC(=O)C(=O)CC(=O)C2CCOC2=O)c(C)c1 (stereo not given)	> 100	> 100	> 100	> 100	> 100	> 100	> 100	> 100	> 100	–	–	–	–	–	–	–	–
CN(C)CCSc1cccc(-c2cc(-c3cccc(SCCN(C)C)c3)nc(SCCN(C)C)n2)c1	3.1	13.8	–	3.19	19.4	–	–	–	2.96	–	–	–	–	–	–	–	–
COC(=O)CCC(=O)Nc1cc(Cl)ccc1Cl	> 100	> 100	–	> 100	> 100	> 100	> 100	> 100	> 100	–	–	–	–	–	–	–	–
O=C(CC1(O)C(=O)Nc2ccccc21)c1ccco1 (stereo not given)	> 100	> 100	> 100	> 100	> 100	> 100	> 100	> 100	> 100	–	–	–	–	–	–	–	–
COc1ccc(NC(=O)CC/C(CC(=O)C(C)(C)C)=N\NC(=O)C(N)=O)cc1	> 100	> 100	> 100	> 100	> 100	> 100	–	> 100	–	–	–	–	–	–	–	–	–
C#CCN(N=O)C(=O)NC(CCCNC(=O)OCc1ccccc1)C(=O)OCc1ccccc1 (stereo not given)	> 100	> 100	> 100	> 100	> 100	> 100	> 100	> 100	> 100	–	–	–	–	–	–	–	–
COc1ccc(C(=O)C(c2ccc(OC)cc2)C2OC(=O)C(Cl)=C2Cl)cc1 (stereo not given)	> 100	> 100	–	> 100	> 100	> 100	> 100	> 100	> 100	–	–	–	–	–	–	–	–
CC1=C(C(=O)NCc2ccccc2)C(c2ccc([N+](=O)[O-])cc2)C(C(=O)NCc2ccccc2)=C(C)N1	> 100	> 100	83.5	> 100	89.7	> 100	–	> 100	> 100	–	–	–	–	–	–	–	–
O=C(c1ccccc1)c1oc2ccc(Br)cc2c1-c1cnn(-c2ccccc2)c1	> 100	> 100	> 100	–	> 100	> 100	> 100	> 100	–	–	–	–	–	–	–	–	–
O=C(Nc1cccc(Cc2cccc(NC(=O)c3ccccc3)c2)c1)c1ccccc1	> 100	> 100	> 100	39.6	> 100	94.6	–	> 100	> 100	–	–	–	–	–	–	–	–
NCCN.NCCN.O=C[O-].O=C[O-].[Co+3].[O-][Cl+3]([O-])([O-])[O-]	> 100	> 100	> 100	> 100	> 100	–	> 100	> 100	> 100	> 100	> 100	> 100	> 100	> 100	> 100	> 100	> 100
Cc1ccc(C2NC(=O)c3ccccc3N2)s1 (stereo not given)	> 100	> 100	–	14.4	> 100	> 100	> 100	> 100	> 100	–	–	–	–	–	–	–	–
CC(C)C1CC2C(=O)N(c3ccccc3)C(=O)C2c2[nH]c3ccccc3c21 (stereo not given)	18.7	> 100	–	67.5	38.3	–	> 100	–	> 100	–	–	–	–	–	–	–	–
